Source: patent US20100184732A1, “METHOD OF LONG-TERM TREATMENT OF GRAFT-VERSUS-HOST DISEASE USING TOPICAL ACTIVE CORTICOSTEROIDS” (priority 2000, published 2010)

Experiments:
[1] = tested on: patients with Grade II GVHD with gastrointestinal symptoms; assay: Phase III randomized, double-blind, placebo-controlled trial of oral BDP plus 10 days of prednisone: treatment failure and survival; type: in vivo, human; conditions: for Treatment failure rate (95% CI): Kaplan-Meier estimate
Text: The Secondary objectives of the study were: • 1. To compare the proportion of treatment failures in the two groups on Study Days 10, 30, 50, 60, and 80. • 2. To compare the treatment groups with respect to cumulative systemic corticosteroid exposure. • 3. […] To compare the treatment groups with respect to total deaths and cause of death through 200 days post-transplant. • 6.
To be eligible for entry into the study, patients must be at least 10 days post allogeneic hematopoietic cell transplantation, have GI symptoms consistent with Grade II GVHD, and have endoscopic evidence of GVHD. The diagnosis of GVHD was confirmed by biopsy of the intestine (esophagus, stomach, small intestine, or colon) or skin.
This was a multi-center, randomized, double-blind, placebo-controlled, parallel-group study in patients with Grade II GVHD with GI symptoms. To determine eligibility for entry into the study, patients must undergo a screening evaluation, including intestinal or skin biopsy and infection work-up.
The randomization was stratified by the source of the allograft (two HLA haplotype identical sibling versus all other), and by topical corticosteroid use (yes versus no). All patients received 10 days of prednisone at 1 mg/kg/day (or an equivalent dose of intravenous [IV] corticosteroid).
For all patients, the second dose of study drug was administered on the morning of Study Day 2, after which dosing was 4 times daily until Study Day 50.
All patients are monitored per standard post transplant routine in the hospital or outpatient clinic. Patients underwent study evaluations, included blood specimens for PK analysis, on Study Days 10, 30, 50, 60, and 80. In addition, adverse events that occurred during the interval since the prior visit are assessed and recorded. Following the final dose of study drug on the morning of Study Day 50, timed blood samples were obtained for up to 24 hours for PK analysis from some patients.
• 1. […] Karnofsky Scale score if the patient is 16 years of age or older or the Lansky Scale score if the patient is younger than 16 years of age.
• 1. Adverse events. • 2. Cumulative prednisone dose (per kg of body weight). • 3. Worsening of GVHD as determined through the assessment of diarrhea, rash, and bilirubin levels. • 4. HPA axis function. • 5. Hematology measurements (with differential, including eosinophils) at Baseline and Study Day 50. • 6. Serum chemistry and urinalysis measurements at Baseline and Study Day 50. • 7. Patient survival through day 200 post-transplant.
The primary efficacy endpoint of this two-arm study is the time to treatment failure. The primary efficacy analysis will compare the time to treatment failure through Study Day 50 using a log-rank test controlling for patient randomization stratum. Product-limit estimates for time to failure will be provided for descriptive purposes. The null hypothesis for the log-rank test is that time to failure is homogeneous across the treatment groups.
Secondary analyses of treatment failure compared the treatment groups with respect to proportion of treatment failures and Karnofsky Scale (or Lansky Scale) scores at key time points.
Both regimens included oral prednisone (1 mg/kg/day) or an equivalent dose of IV methylprednisolone (dose of IV methylprednisolone=0.8×dose of oral prednisone) given in 2 divided doses per day on Study Days 1 to 10.
On Study Day 10, patients were evaluated for the signs and symptoms of GVHD. […] Starting on Study Day 17, physiologic replacement doses of prednisone were given for the remainder of the study. If the investigator determined that GVHD was not controlled on Study Day 10, patients discontinued study drug but continued prednisone initially at 1 mg/kg/day; these patients were considered to be treatment failures. In treatment failure cases, physicians subsequently modified prednisone dosage as deemed appropriate.

[2] = tested on: patients with gastrointestinal GVHD; conditions: cited from earlier work
patients with GVHD = conditions: high-dose prednisone, 2 mg per kg per day; cited from earlier work

Row | SMILES | Day 200 survival rate (95% CI) ([1]; 200 days post-transplant, Safety Population) | Treatment failure rate (95% CI) ([1]; Study Day 10) | Treatment failure rate (95% CI) ([1]; Study Day 30) | Treatment failure rate (95% CI) ([1]; Study Day 50) | Treatment failure rate (95% CI) ([1]; Study Day 60) | Treatment failure rate (95% CI) ([1]; Study Day 80) | time to treatment failure through Day 50 (primary endpoint), significance versus placebo ([1]; through Day 50, p-value 0.1177) | time to treatment failure through Day 80 (secondary endpoint), significance versus placebo ([1]; through Day 80, p-value 0.0226) | appetite, oral intake, nausea and diarrhea over the course of therapy ([2]; 8 mg daily oral, BDP alone and added to prednisone) | treatment-related adverse events ([2]; 8 mg/day for 28 days) | time to improvement ([2]; BDP as monotherapy) [days] | safety and efficacy in mild-to-moderate intestinal GVHD ([2]; alone or added to prednisone) | complete and sustained remission of gastrointestinal symptoms (patients with GVHD)
1 | CCC(=O)OCC(=O)[C@@]1(OC(=O)CC)[C@@H](C)C[C@H]2[C@@H]3CCC4=CC(=O)C=C[C@]4(C)[C@@]3(Cl)[C@@H](O)C[C@@]21C [BDP, beclomethasone dipropionate] | 0.91 (0.86, 0.98) | 0.14 (0.08, 0.24) | 0.25 (0.18, 0.37) | 0.31 (0.23, 0.43) | 0.33 (0.24, 0.45) | 0.39 (0.30, 0.52) | did not achieve statistical significance | did achieve statistical significance | Significant improvement | No significant treatment-related adverse events | 7 to 10 | safe and effective | 
2 | C[C@]12C=CC(=O)C=C1CC[C@@H]1[C@@H]2C(=O)C[C@@]2(C)[C@H]1CC[C@]2(O)C(=O)CO [Prednisone, prednisone] |  |  |  |  |  |  |  |  |  |  |  |  | 50-70 % of patients
